In US20250388574A1, “HETEROCYCLIC COMPOUNDS AS TRIGGERING RECEPTOR EXPRESSED ON MYELOID CELLS 2 AGONISTS AND METHODS OF USE” (AMGEN INC., priority 2020, published 2025):

Target: hTREM2 (Homo sapiens, UniProt Q9NZC2)
Assay: Phospho-Syk AlphaScreen/AlphaLISA assay in TREM2 and DAP12 overexpressing HEK293 cells (Example A1)
Format: cell-based
Set-up: expressed in transfected cells
Details: HEK293 cells; for EC50: read-out: hTREM2 EC50
Procedure, shortened: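 Agonism read as Syk phosphorylation: compounds in 1% DMSO applied 45 min at room temperature to TREM2/DAP12-HEK293 cells after 20 h culture. Lysis buffer with phosphatase inhibitors and anti-phospho-Syk plus biotinylated anti-Syk antibodies, then AlphaLISA beads (680 nm excitation); percent of control computed from antibody/isotype wells, curves fitted sigmoidally.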

Chain of hTREM2 (Q9NZC2 19-230): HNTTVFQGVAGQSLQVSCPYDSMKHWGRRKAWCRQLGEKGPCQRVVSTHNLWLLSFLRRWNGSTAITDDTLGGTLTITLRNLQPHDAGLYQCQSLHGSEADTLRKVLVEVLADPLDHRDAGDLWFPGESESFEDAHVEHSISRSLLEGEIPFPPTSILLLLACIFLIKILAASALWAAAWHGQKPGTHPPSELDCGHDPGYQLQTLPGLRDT
Chain of hTREM2 (O43914 22-113 partner): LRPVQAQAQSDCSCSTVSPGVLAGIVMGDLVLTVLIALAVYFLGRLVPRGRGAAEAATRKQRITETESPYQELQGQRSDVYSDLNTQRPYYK

Row | Emax | EC50 | SMILES
1 | ++++ (Emax>300) | 3 to 100 µM | Cc1nc2cc(N3CCO[C@@H](c4cnn(C)c4)C3)nc(-c3ccc(Cl)cn3)c2c(=O)n1C [Example 212, (S)-5-(5-chloropyridin-2-yl)-2,3-dimethyl-7-(2-(1-methyl-1H-pyrazol-4-yl)morpholino)pyrido[4,3-d]pyrimidin-4(3H)-one]
2 | ++++ (Emax>300) | 3 to 100 µM | Cc1nc2cc(N3CCC[C@H](c4ccccc4)C3)nc(-c3ccc(Cl)cc3F)c2c(=O)n1C [Example 213, (R)-5-(4-chloro-2-fluorophenyl)-2,3-dimethyl-7-(3-phenylpiperidin-1-yl)pyrido[4,3-d]pyrimidin-4(3H)-one]
3 | ++++ (Emax>300) | 0.05 to 0.5 µM | Cc1nc2cc(N3CCC[C@H](c4cnn(C)c4)C3)nc(-c3ccc(Cl)cc3F)c2c(=O)n1C [Example 214, (R)-5-(4-chloro-2-fluorophenyl)-2,3-dimethyl-7-(3-(1-methyl-1H-pyrazol-4-yl)piperidin-1-yl)pyrido[4,3-d]pyrimidin-4(3H)-one]
4 | ++++ (Emax>300) | 3 to 100 µM | CCCn1c(C)nc2cc(N3CCO[C@H](c4cnn(C)c4)C3)nc(-c3ncc(Cl)cc3F)c2c1=O [Example 215, (R)-5-(5-chloro-3-fluoropyridin-2-yl)-2-methyl-7-(2-(1-methyl-1H-pyrazol-4-yl)morpholino)-3-propylpyrido[4,3-d]pyrimidin-4(3H)-one]
5 | ++++ (Emax>300) | 0.5 to 3 µM | Cc1nc2cc(N3CCO[C@@H](c4cnn(C)c4)C3)nc(-c3ncc(Cl)cc3F)c2c(=O)n1C [Example 216, (S)-5-(5-chloro-3-fluoropyridin-2-yl)-2,3-dimethyl-7-(2-(1-methyl-1H-pyrazol-4-yl)morpholino)pyrido[4,3-d]pyrimidin-4(3H)-one]
6 | +++ (Emax>200 and ≤300) | 3 to 100 µM | Cc1nc2cc(N3CCO[C@H](c4cnn(C)c4)C3)nc(-c3ncc(Cl)cc3F)c2c(=O)n1C [Example 217, (R)-5-(5-chloro-3-fluoropyridin-2-yl)-2,3-dimethyl-7-(2-(1-methyl-1H-pyrazol-4-yl)morpholino)pyrido[4,3-d]pyrimidin-4(3H)-one]
7 | +++ (Emax>200 and ≤300) | 3 to 100 µM | Cc1nc2cc(N3CCO[C@H](c4cnn(C)c4)C3)nc(-c3ccccc3F)c2c(=O)n1C [Example 218, (R)-5-(2-fluorophenyl)-2,3-dimethyl-7-(2-(1-methyl-1H-pyrazol-4-yl)morpholino)pyrido[4,3-d]pyrimidin-4(3H)-one]
8 | ++ (Emax>100 and ≤200) | 0.5 to 3 µM | Cc1nc2cc(N3CCO[C@@](C)(C4CC4)C3)nc(-c3ccc(Cl)cc3F)c2c(=O)n1C [Example 219, (S)-5-(4-chloro-2-fluorophenyl)-7-(2-cyclopropyl-2-methylmorpholino)-2,3-dimethylpyrido[4,3-d]pyrimidin-4(3H)-one]
9 | ++++ (Emax>300) | 0.05 to 0.5 µM | Cc1nc2cc(N3CCO[C@H](c4cnn(C)c4)C3)nc(-c3ccc(Cl)cc3)c2c(=O)n1C [Example 220, (R)-5-(4-chlorophenyl)-2,3-dimethyl-7-(2-(1-methyl-1H-pyrazol-4-yl)morpholino)pyrido[4,3-d]pyrimidin-4(3H)-one]
10 | ++++ (Emax>300) | 0.05 to 0.5 µM | Cc1nc2cc(N3CCO[C@H](c4cnn(C)c4)C3)cc(-c3ccc(Cl)cc3F)c2c(=O)n1C [Example 221, (R)-5-(4-chloro-2-fluorophenyl)-2,3-dimethyl-7-(2-(1-methyl-1H-pyrazol-4-yl)morpholino)quinazolin-4(3H)-one]
11 | ++ (Emax>100 and ≤200) | 0.5 to 3 µM | Cc1nc2cc(N3CCc4ncn(C)c4C3)nc(-c3ccc(Cl)cc3F)c2c(=O)n1C [Example 222, 5-(4-chloro-2-fluorophenyl)-2,3-dimethyl-7-(3-methyl-3,4,6,7-tetrahydro-5H-imidazo[4,5-c]pyridin-5-yl)pyrido[4,3-d]pyrimidin-4(3H)-one]
12 | ++ (Emax>100 and ≤200) | 3 to 100 µM | Cc1cnc2n1CCN(c1cc3nc(C)n(C)c(=O)c3c(-c3ccc(Cl)cc3F)n1)C2 [Example 223, 5-(4-chloro-2-fluorophenyl)-2,3-dimethyl-7-(3-methyl-5,6-dihydroimidazo[1,2-a]pyrazin-7(8H)-yl)pyrido[4,3-d]pyrimidin-4(3H)-one]
13 | +++ (Emax>200 and ≤300) | 0.5 to 3 µM | Cc1nc2cc(N3CCO[C@@](C)(c4cnn(C)c4)C3)nc(-c3ccc(Cl)cc3F)c2c(=O)n1C [Example 224, (S)-5-(4-chloro-2-fluorophenyl)-2,3-dimethyl-7-(2-methyl-2-(1-methyl-1H-pyrazol-4-yl)morpholino)pyrido[4,3-d]pyrimidin-4(3H)-one]
14 | ++++ (Emax>300) | 0.5 to 3 µM | Cc1nc2cc(N3CCO[C@](C)(c4cnn(C)c4)C3)nc(-c3ccc(Cl)cc3F)c2c(=O)n1C [Example 225, (R)-5-(4-chloro-2-fluorophenyl)-2,3-dimethyl-7-(2-methyl-2-(1-methyl-1H-pyrazol-4-yl)morpholino)pyrido[4,3-d]pyrimidin-4(3H)-one]
15 | ++++ (Emax>300) | 0.05 to 0.5 µM | Cc1nc2cc(N3CCO[C@H](c4ccncc4)C3)nc(-c3ccc(Cl)cc3F)c2c(=O)n1C [Example 226, (R)-5-(4-chloro-2-fluorophenyl)-2,3-dimethyl-7-(2-(pyridin-4-yl)morpholino)pyrido[4,3-d]pyrimidin-4(3H)-one]
16 | +++ (Emax>200 and ≤300) | 3 to 100 µM | Cc1nc2cc(N3CCO[C@@H](c4cnn(C)c4)C3)nc(-c3cccc(F)c3F)c2c(=O)n1C [Example 227, (S)-5-(2,3-difluorophenyl)-2,3-dimethyl-7-(2-(1-methyl-1H-pyrazol-4-yl)morpholino)pyrido[4,3-d]pyrimidin-4(3H)-one]
17 | +++ (Emax>200 and ≤300) | 0.5 to 3 µM | Cc1nc2cc(N3CCO[C@@H](c4cnn(C)c4)C3)nc(-c3cc(F)ccc3F)c2c(=O)n1C [Example 228, (S)-5-(2,5-difluorophenyl)-2,3-dimethyl-7-(2-(1-methyl-1H-pyrazol-4-yl)morpholino)pyrido[4,3-d]pyrimidin-4(3H)-one]
18 | ++++ (Emax>300) | 0.5 to 3 µM | Cc1nc2cc(N3CCO[C@@H](c4cnn(C)c4)C3)nc(-c3ccc(F)cc3)c2c(=O)n1C [Example 229, (S)-5-(4-fluorophenyl)-2,3-dimethyl-7-(2-(1-methyl-1H-pyrazol-4-yl)morpholino)pyrido[4,3-d]pyrimidin-4(3H)-one]
19 | ++++ (Emax>300) | 0.5 to 3 µM | Cc1noc([C@H]2CCCN(c3cc4nc(C)n(C)c(=O)c4c(-c4ccc(Cl)cc4F)n3)C2)n1 [Example 230, (S)-5-(4-chloro-2-fluorophenyl)-2,3-dimethyl-7-(3-(3-methyl-1,2,4-oxadiazol-5-yl)piperidin-1-yl)pyrido[4,3-d]pyrimidin-4(3H)-one]
20 | +++ (Emax>200 and ≤300) | 0.5 to 3 µM | Cc1cnn([C@H]2CCCN(c3cc4nc(C)n(C)c(=O)c4c(-c4ccc(Cl)cc4F)n3)C2)c1 [Example 231, (S)-5-(4-chloro-2-fluorophenyl)-2,3-dimethyl-7-(3-(4-methyl-1H-pyrazol-1-yl)piperidin-1-yl)pyrido[4,3-d]pyrimidin-4(3H)-one]
21 | ++++ (Emax>300) | 0.5 to 3 µM | Cc1nc2cc(N3CCC[C@H](N4CCCC4=O)C3)nc(-c3ccc(Cl)cc3F)c2c(=O)n1C [Example 232, (S)-5-(4-chloro-2-fluorophenyl)-2,3-dimethyl-7-(3-(2-oxopyrrolidin-1-yl)piperidin-1-yl)pyrido[4,3-d]pyrimidin-4(3H)-one]
22 | ++++ (Emax>300) | 0.05 to 0.5 µM | Cc1nc2cc(N3CCC[C@H](c4ccncc4)C3)nc(-c3ccc(Cl)cc3F)c2c(=O)n1C [Example 233, (R)-5-(4-chloro-2-fluorophenyl)-2,3-dimethyl-7-(3-(pyridin-4-yl)piperidin-1-yl)pyrido[4,3-d]pyrimidin-4(3H)-one]
23 | ++ (Emax>100 and ≤200) | 3 to 100 µM | Cc1cn2c(n1)CN(c1cc3nc(C)n(C)c(=O)c3c(-c3ccc(Cl)cc3F)n1)CC2 [Example 234, 5-(4-chloro-2-fluorophenyl)-2,3-dimethyl-7-(2-methyl-5,6-dihydroimidazo[1,2-a]pyrazin-7(8H)-yl)pyrido[4,3-d]pyrimidin-4(3H)-one]
24 | ++++ (Emax>300) | 0.5 to 3 µM | Cc1nc2cc(N3CCO[C@H](c4ccc(OCC(F)(F)F)nc4)C3)nc(-c3ccc(Cl)cc3F)c2c(=O)n1C [Example 235, (R)-5-(4-chloro-2-fluorophenyl)-2,3-dimethyl-7-(2-(6-(2,2,2-trifluoroethoxy)pyridin-3-yl)morpholino)pyrido[4,3-d]pyrimidin-4(3H)-one]
25 | ++ (Emax>100 and ≤200) | 3 to 100 µM | Cc1nc2cc(N3CCO[C@@H](c4ccc(OCC(F)(F)F)nc4)C3)nc(-c3ccc(Cl)cc3F)c2c(=O)n1C [Example 236, (S)-5-(4-chloro-2-fluorophenyl)-2,3-dimethyl-7-(2-(6-(2,2,2-trifluoroethoxy)pyridin-3-yl)morpholino)pyrido[4,3-d]pyrimidin-4(3H)-one]
26 | ++ (Emax>100 and ≤200) | 0.05 to 0.5 µM | COc1ccc([C@@H]2CN(c3cc4nc(C)n(C)c(=O)c4c(-c4ccc(Cl)cc4F)n3)CCO2)cc1 [Example 237, (R)-5-(4-chloro-2-fluorophenyl)-7-(2-(4-methoxyphenyl)morpholino)-2,3-dimethylpyrido[4,3-d]pyrimidin-4(3H)-one]
27 | ++++ (Emax>300) | 0.05 to 0.5 µM | COc1cccc([C@@H]2CN(c3cc4nc(C)n(C)c(=O)c4c(-c4ccc(Cl)cc4F)n3)CCO2)c1 [Example 238, (R)-5-(4-chloro-2-fluorophenyl)-7-(2-(3-methoxyphenyl)morpholino)-2,3-dimethylpyrido[4,3-d]pyrimidin-4(3H)-one]
